According to patent US9499466B2, “Diene-based carboxylate anion and salt thereof, and polymerizable or curable composition thereof” (NIPPON SHOKUBAI CO., LTD., priority 2010, dated 2016):

How the values were obtained:
[1] = Solubility test (film-forming method); conditions: for Solubility (film-forming method) Water: solvent dropped on film on glass plate
Method: Each compound was applied on a glass plate and the glass plate was leaned against the wall. Each solvent shown in Table 5 was dropped (5 to 6 drops) on the glass plate with a pasteur pipette. The glass plate was visually observed after the dropped solvent was dried, the surface was optionally rubbed with a spatula, and the solubility (film-forming method) was evaluated according to the criteria shown in Table 4.

[2] = Solubility test (dissolution method); conditions: for Solubility (dissolution method) Water: mixed at 1%, 3%, 5%, 10%, 20% or more
Excerpt: The solubility evaluation by the dissolution method requires complicated operations and a large amount of test sample. Therefore, this test is not suitable for screening. However, the solubility of each compound can be more accurately evaluated.

[3] = Adhesion of cured material to PET film (cross-cut method, JIS K 5600-5-6); conditions: UV-cured film on surface-untreated PET film, cross-cut 10×10
Method: Each compound shown in Table 11 was formed into a UV-cured film on a PET film in the same manner as in the pencil hardness test, except that the PET film used as a substrate was a surface-untreated polyethylene terephthalate (PET) film (Lumirror L-50T60, produced by Toray Industries, Inc.).
The adhesion of the UV-cured film to the PET film was evaluated based on JIS K 5600-5-6 (cross-cut method). The number of divided segments was 10×10 segments=100 segments. The adhesion was evaluated by the number of the segments which remain without peeling or damage in 100 segments.

With `C=C(C)C(=O)[O-].C=CCOCC(=C)C(=O)[O-].C=CCOCC(=C)C(=O)[O-].[In+3]` [In(AMA)2(MAA)1] the “Solubility (film-forming method) Methanol” value [1] was “X-Δ” and the “Solubility (dissolution method) Toluene” value [2] was “◯◯ (Become uniform and transparent at a compound concentration of 20% or more)”.

For `C=C(C)C(=O)[O-].C=CCOCC(=C)C(=O)[O-].[Ni+2]` [Ni(AMA)1(MAA)1], the “Solubility (dissolution method) Toluene” value [2] was “◯◯ (Become uniform and transparent at a compound concentration of 20% or more)”.

In the case of `C=CCOCC(=C)C(=O)[O-].C=CCOCC(=C)C(=O)[O-].CC(C)[O][Ti+2][O]C(C)C` [(i-C3H7O)2Ti(AMA)2], the “Solubility (film-forming method) Acetone” value [1] is reported as “X-Δ”, the “Solubility (film-forming method) Acetonitrile” value [1] is reported as “X-Δ” and the “Solubility (film-forming method) Ethyl acetate” value [1] is reported as “X-Δ”. The “Solubility (film-forming method) Methanol” value [1] was “X-Δ”, the “Solubility (film-forming method) THF” value [1] was “X-Δ” and the “Solubility (film-forming method) Toluene” value [1] was “X-Δ”. For the same compound, the “Solubility (dissolution method) Acetone” value [2] was “◯◯ (Become uniform and transparent at a compound concentration of 20% or more)”, the “Solubility (dissolution method) Acetonitrile” value [2] was “◯◯ (Become uniform and transparent at a compound concentration of 20% or more)” and the “Solubility (dissolution method) Ethyl acetate” value [2] was “◯◯ (Become uniform and transparent at a compound concentration of 20% or more)”. For the same compound, the “Solubility (dissolution method) Methanol” value [2] was “◯◯ (Become uniform and transparent at a compound concentration of 20% or more)”, the “Solubility (dissolution method) THF” value [2] was “◯◯ (Become uniform and transparent at a compound concentration of 20% or more)” and the “Solubility (dissolution method) Toluene” value [2] was “◯◯ (Become uniform and transparent at a compound concentration of 20% or more)”. The “Solubility (dissolution method) Water” value [2] was “X (Not become uniform and transparent even at a compound concentration of 1%)”.

In the case of `C=CCOCC(=C)C(=O)[O-].C=CCOCC(=C)C(=O)[O-].C=CCOCC(=C)C(=O)[O-].[La+3]` [La(AMA)3], the “Solubility (film-forming method) Water” value [1] is reported as “X-Δ”, the “Solubility (dissolution method) THF” value [2] is reported as “◯◯ (Become uniform and transparent at a compound concentration of 20% or more)” and the “Solubility (dissolution method) Toluene” value [2] is reported as “◯ (Become uniform and transparent at a compound concentration of 10%)”.

With `C=CCOCC(=C)C(=O)[O-].C=CCOCC(=C)C(=O)[O-].C=CCOCC(=C)C(=O)[O-].[In+3]` [In(AMA)3] the “Solubility (film-forming method) Acetone” value [1] was “X-Δ”, the “Solubility (film-forming method) Acetonitrile” value [1] was “X-Δ” and the “Solubility (film-forming method) Ethyl acetate” value [1] was “X-Δ”. The “Solubility (film-forming method) Methanol” value [1] was “X-Δ” and the “Solubility (dissolution method) THF” value [2] was “◯◯ (Become uniform and transparent at a compound concentration of 20% or more)”.

For `C=CCOCC(=C)C(=O)[O-].C=CCOCC(=C)C(=O)[O-].C=CCOCC(=C)C(=O)[O-].[Bi+3]` [Bi(AMA)3], the “Solubility (film-forming method) Water” value [1] was “X-Δ”.

For `C=CCOCC(=C)C(=O)OCCOCCOC(=O)C(=C)COCC=C` [DEG-AMA, diethylene glycol di(α-allyloxymethyl acrylate), reference compound], the “Solubility (dissolution method) Acetone” value [2] was “◯◯ (Become uniform and transparent at a compound concentration of 20% or more)”, the “Solubility (dissolution method) Acetonitrile” value [2] was “◯◯ (Become uniform and transparent at a compound concentration of 20% or more)” and the “Solubility (dissolution method) Ethyl acetate” value [2] was “◯◯ (Become uniform and transparent at a compound concentration of 20% or more)”. For the same compound, the “Solubility (dissolution method) Methanol” value [2] was “◯◯ (Become uniform and transparent at a compound concentration of 20% or more)”, the “Solubility (dissolution method) THF” value [2] was “◯◯ (Become uniform and transparent at a compound concentration of 20% or more)” and the “Solubility (dissolution method) Toluene” value [2] was “◯◯ (Become uniform and transparent at a compound concentration of 20% or more)”. For the same compound, the “Solubility (dissolution method) Water” value [2] was “X (Not become uniform and transparent even at a compound concentration of 1%)” and the “Adhesion (segments remaining without peeling or damage in 100 segments)” value [3] was 85/100.

In the case of `C=CCOCC(=C)C(=O)[O-].C=CCOCC(=C)C(=O)[O-].C=CCOCC(=C)C(=O)[O-].[Fe+3]` [Fe(AMA)3], the “Solubility (film-forming method) Water” value [1] is reported as “X-Δ” and the “Solubility (dissolution method) Toluene” value [2] is reported as “◯◯ (Become uniform and transparent at a compound concentration of 20% or more)”.

For `C=CCOCC(=C)C(=O)[O-].C=CCOCC(=C)C(=O)[O-].[Cu+2]` [Cu(AMA)2], the “Solubility (dissolution method) THF” value [2] was “◯◯ (Become uniform and transparent at a compound concentration of 20% or more)”.

With `C=CCOCC(=C)C(=O)[O-].C=CCOCC(=C)C(=O)[O-].C=CCOCC(=C)C(=O)[O-].[Er+3]` [Er(AMA)3] the “Solubility (film-forming method) Water” value [1] was “X-Δ”, the “Solubility (dissolution method) THF” value [2] was “◯◯ (Become uniform and transparent at a compound concentration of 20% or more)” and the “Solubility (dissolution method) Toluene” value [2] was “◯ (Become uniform and transparent at a compound concentration of 10%)”.

In the case of `C=CCOCC(=C)C(=O)[O-].C=CCOCC(=C)C(=O)[O-].[Co+2]` [Co(AMA)2], the “Solubility (film-forming method) Acetonitrile” value [1] is reported as “X-Δ”, the “Solubility (film-forming method) Methanol” value [1] is reported as “X-Δ” and the “Solubility (dissolution method) Toluene” value [2] is reported as “◯◯ (Become uniform and transparent at a compound concentration of 20% or more)”.

For `C=CC(=O)OCC(C)(C)COC(=O)C=C` [NPGDA, reference compound], the “Solubility (dissolution method) Acetone” value [2] was “◯◯ (Become uniform and transparent at a compound concentration of 20% or more)”, the “Solubility (dissolution method) Acetonitrile” value [2] was “◯◯ (Become uniform and transparent at a compound concentration of 20% or more)” and the “Solubility (dissolution method) Ethyl acetate” value [2] was “◯◯ (Become uniform and transparent at a compound concentration of 20% or more)”. For the same compound, the “Solubility (dissolution method) Methanol” value [2] was “◯◯ (Become uniform and transparent at a compound concentration of 20% or more)”, the “Solubility (dissolution method) THF” value [2] was “◯◯ (Become uniform and transparent at a compound concentration of 20% or more)” and the “Solubility (dissolution method) Toluene” value [2] was “◯◯ (Become uniform and transparent at a compound concentration of 20% or more)”. The “Solubility (dissolution method) Water” value [2] was “X (Not become uniform and transparent even at a compound concentration of 1%)” and the “Adhesion (segments remaining without peeling or damage in 100 segments)” value [3] was 49/100.

With `C=CCOCC(=C)C(=O)OCC(C)(C)COC(=O)C(=C)COCC=C` [NPG-AMA, neopentyl glycol di(α-allyloxymethyl acrylate), reference compound] the “Solubility (dissolution method) Acetone” value [2] was “◯◯ (Become uniform and transparent at a compound concentration of 20% or more)”, the “Solubility (dissolution method) Acetonitrile” value [2] was “◯◯ (Become uniform and transparent at a compound concentration of 20% or more)” and the “Solubility (dissolution method) Ethyl acetate” value [2] was “◯◯ (Become uniform and transparent at a compound concentration of 20% or more)”. For the same compound, the “Solubility (dissolution method) Methanol” value [2] was “◯◯ (Become uniform and transparent at a compound concentration of 20% or more)”, the “Solubility (dissolution method) THF” value [2] was “◯◯ (Become uniform and transparent at a compound concentration of 20% or more)” and the “Solubility (dissolution method) Toluene” value [2] was “◯◯ (Become uniform and transparent at a compound concentration of 20% or more)”. For the same compound, the “Solubility (dissolution method) Water” value [2] was “X (Not become uniform and transparent even at a compound concentration of 1%)” and the “Adhesion (segments remaining without peeling or damage in 100 segments)” value [3] was 72/100.

In the case of `C=C(C)C(=O)[O-].C=CCOCC(=C)C(=O)[O-].[CH3][Sn+2][CH3]` [(CH3)2Sn(AMA)1(MAA)1], the “Solubility (dissolution method) Toluene” value [2] is reported as “◯◯ (Become uniform and transparent at a compound concentration of 20% or more)”.

In the case of `C=CCOCC(=C)C(=O)[O-].C=CCOCC(=C)C(=O)[O-].[CH3][Sn+2][CH3]` [(CH3)2Sn(AMA)2], the “Solubility (dissolution method) Toluene” value [2] is reported as “◯◯ (Become uniform and transparent at a compound concentration of 20% or more)”.

For `C=CCOCC(=C)C(=O)[O-].C=CCOCC(=C)C(=O)[O-].C=CCOCC(=C)C(=O)[O-].[Al+3]` [Al(AMA)3], the “Adhesion (segments remaining without peeling or damage in 100 segments)” value [3] was 100/100.

With `C=CCOCC(=C)C(=O)[O-].C=CCOCC(=C)C(=O)[O-].C=CCOCC(=C)C(=O)[O-].[Eu+3]` [Eu(AMA)3] the “Solubility (dissolution method) THF” value [2] was “◯◯ (Become uniform and transparent at a compound concentration of 20% or more)” and the “Solubility (dissolution method) Toluene” value [2] was “◯ (Become uniform and transparent at a compound concentration of 10%)”.

For `C=CCOCC(=C)C(=O)[O-].C=CCOCC(=C)C(=O)[O-].C=CCOCC(=C)C(=O)[O-].[Cr+3]` [Cr(AMA)3], the “Solubility (film-forming method) Methanol” value [1] was “X-Δ” and the “Solubility (dissolution method) Toluene” value [2] was “◯◯ (Become uniform and transparent at a compound concentration of 20% or more)”.

With `C=CCOCC(=C)C(=O)[O-].C=CCOCC(=C)C(=O)[O-].[Mn+2]` [Mn(AMA)2] the “Solubility (film-forming method) Water” value [1] was “X-Δ” and the “Solubility (dissolution method) Toluene” value [2] was “◯◯ (Become uniform and transparent at a compound concentration of 20% or more)”.

With `C=CCOCC(=C)C(=O)[O-].C=CCOCC(=C)C(=O)[O-].C=CCOCC(=C)C(=O)[O-].[Au+3]` [Au(AMA)3] the “Solubility (film-forming method) Toluene” value [1] was “X-Δ”.

In the case of `C=C(C)COCC(=C)C(=O)[O-].C=C(C)COCC(=C)C(=O)[O-].[Zn+2]` [Zn(MAMA)2], the “Solubility (film-forming method) Water” value [1] is reported as “X-Δ” and the “Solubility (dissolution method) Toluene” value [2] is reported as “◯◯ (Become uniform and transparent at a compound concentration of 20% or more)”.

With `C=CCOCC(=C)C(=O)[O-].C=CCOCC(=C)C(=O)[O-].CCC[O][Zr+2][O]CCC` [(n-C3H7O)2Zr(AMA)2] the “Solubility (film-forming method) Acetone” value [1] was “X-Δ”, the “Solubility (film-forming method) Acetonitrile” value [1] was “X-Δ” and the “Solubility (film-forming method) Ethyl acetate” value [1] was “X-Δ”. For the same compound, the “Solubility (film-forming method) Methanol” value [1] was “X-Δ”, the “Solubility (film-forming method) THF” value [1] was “X-Δ” and the “Solubility (film-forming method) Toluene” value [1] was “X-Δ”. The “Solubility (dissolution method) Acetone” value [2] was “◯◯ (Become uniform and transparent at a compound concentration of 20% or more)”, the “Solubility (dissolution method) Acetonitrile” value [2] was “X (Not become uniform and transparent even at a compound concentration of 1%)” and the “Solubility (dissolution method) Ethyl acetate” value [2] was “◯ (Become uniform and transparent at a compound concentration of 10%)”. For the same compound, the “Solubility (dissolution method) Methanol” value [2] was “X (Not become uniform and transparent even at a compound concentration of 1%)”, the “Solubility (dissolution method) THF” value [2] was “◯◯ (Become uniform and transparent at a compound concentration of 20% or more)” and the “Solubility (dissolution method) Toluene” value [2] was “◯◯ (Become uniform and transparent at a compound concentration of 20% or more)”. The “Solubility (dissolution method) Water” value [2] was “X (Not become uniform and transparent even at a compound concentration of 1%)”.
